The test system of this assay is Pulicinae. Nature of the assay: In vitro systemic flea efficacy using membrane feeding assay. The format is functional.
`C=C(C)[C@H]1C(=O)c2c3c(cc4c5c(n1c24)[C@@]1(C)C(CC[C@H]2[C@](C)(/C=C/C=C/C(N)=O)[C@@H](O)CC[C@@]21C)C5)C1=CC(C)(C)OC(C)(C)C1[C@@H]3O` (stereo not given in full): the Activity worked out at 1 p.p.m. `C=C(C)[C@H]1C(=O)c2c3c(cc4c5c(n1c24)[C@@]1(C)C(CC[C@H]2[C@](C)(/C=C/C=C/C(C)=O)[C@@H](O)CC[C@@]21C)C5)C1=CC(C)(C)OC(C)(C)C1[C@@H]3O` (stereo not given in full) yielded an Activity of 10 p.p.m. Compound `C=C(C)[C@H]1C(=O)c2c3c(cc4c5c(n1c24)[C@@]1(C)C(CC[C@H]2[C@](C)(/C=C/C=C(\C#N)c4nc6ccccc6[nH]4)[C@@H](O)CC[C@@]21C)C5)C1=CC(C)(C)OC(C)(C)C1[C@@H]3O` (stereo not given in full) came in with an Activity of 10 p.p.m. In turn, `C=C(C)[C@H]1C(=O)c2c3c(cc4c5c(n1c24)[C@@]1(C)C(CC[C@H]2[C@](C)(/C=C/C=C/C(=O)OCC)[C@@H](O)CC[C@@]21C)C5)C1=CC(C)(C)OC(C)(C)C1[C@@H]3O` (stereo not given in full) yielded an Activity of 1 p.p.m. Next, `C=C(C)[C@H]1C(=O)c2c3c(cc4c5c(n1c24)[C@@]1(C)C(CC[C@H]2[C@](C)(/C=C/C=C/C(=O)N4CCCC4)[C@@H](O)CC[C@@]21C)C5)C1=CC(C)(C)OC(C)(C)C1[C@@H]3O` (stereo not given in full): 1 p.p.m; `C=C(C)[C@H]1C(=O)c2c3c(cc4c5c(n1c24)[C@@]1(C)C(CC[C@H]2[C@](C)(/C=C/C=C/C(=O)N(C)CC)[C@@H](O)CC[C@@]21C)C5)C1=CC(C)(C)OC(C)(C)C1[C@@H]3O` (stereo not given in full): 1 p.p.m.

`C=C(C)[C@H]1C(=O)c2c3c(cc4c5c(n1c24)[C@@]1(C)C(CC[C@H]2[C@](C)(/C=C/C=C(\CC)C(=O)N4CCCC4)[C@@H](O)CC[C@@]21C)C5)C1=CC(C)(C)OC(C)(C)C1[C@@H]3O` (stereo not given in full) yielded an Activity of 10 p.p.m. `C=C(C)[C@H]1C(=O)c2c3c(cc4c5c(n1c24)[C@@]1(C)C(CC[C@H]2[C@](C)(/C=C/C=C/C(=O)OC(C)(C)C)[C@@H](O)CC[C@@]21C)C5)C1=CC(C)(C)OC(C)(C)C1[C@@H]3O` (stereo not given in full) returned an Activity of 10 p.p.m. Consider `C=C(C)[C@H]1C(=O)c2c3c(cc4c5c(n1c24)[C@@]1(C)C(CC[C@H]2[C@](C)(/C=C/C=C(\OC)C(=O)NCC)[C@@H](O)CC[C@@]21C)C5)C1=CC(C)(C)OC(C)(C)C1[C@@H]3O` (stereo not given in full), for which the Activity amounted to 10 p.p.m. For `C=CCOC(=O)/C=C/C=C/[C@]1(C)[C@@H](O)CC[C@@]2(C)[C@H]1CCC1Cc3c(n4c5c(c6c(cc35)C3=CC(C)(C)OC(C)(C)C3[C@@H]6O)C(=O)[C@@H]4C(=C)C)[C@@]12C` (stereo not given in full), the Activity stood at 1 p.p.m.

Values taken from ChEMBL document CHEMBL1135452, “Side-chain homologation of nodulisporic acid: synthesis of potent new dienyl derivatives” (Bioorg Med Chem Lett, 2002).
